Test results reported in patent EP4810494A1, “HPK1 DEGRADATION AGENT AND USE THEREOF IN FIELD OF MEDICINE” (Haisco Pharmaceutical Group Co., Ltd., priority 2023, dated 2025).
Counter-ions that a name gives are not always drawn. Like-named read-outs stand apart in the source and are kept apart here. One block for each molecule: values may come before it.

Experiments:
[1] = molecular target: T1, HPK1 kinase (Homo sapiens, UniProt Q92918); test: HPK1 kinase assay (1 mM ATP); format: biochemical
T1 construct: purchased Carna 07-410
T1 sequence (Q92918 1-346 limits assumed): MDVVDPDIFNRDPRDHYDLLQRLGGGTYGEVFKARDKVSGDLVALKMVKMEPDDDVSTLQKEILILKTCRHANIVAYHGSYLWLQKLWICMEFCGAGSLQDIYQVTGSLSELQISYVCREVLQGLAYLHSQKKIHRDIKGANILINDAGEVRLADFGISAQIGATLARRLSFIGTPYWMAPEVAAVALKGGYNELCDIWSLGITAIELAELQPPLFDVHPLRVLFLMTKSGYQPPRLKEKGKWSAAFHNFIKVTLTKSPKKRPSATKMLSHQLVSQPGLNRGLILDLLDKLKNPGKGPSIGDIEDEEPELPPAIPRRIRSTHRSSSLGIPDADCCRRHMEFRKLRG
Experimental: Test example 5: HPK1 kinase assay (1 mM ATP)
The kinase HPK1 (Carna, Cat.No 07-410) was prepared into 2× kinase solution using 1× kinase buffer. The substrate Fluorescein-PKC (Invitrogen, Cat. No. PV3506) and ATP (working concentration: 1 mM) (Sigma, Cat. No. 2383-5G) were prepared into 2× substrate solution using 1×kinase buffer. The detection reagent was diluted to 2-fold the final concentration using an antibody diluent. 100 nL of compounds at different concentrations and 5 µL of kinase solution were added to each well of a 384-well plate, and the mixture was incubated at room temperature for 10 minutes. After the incubation was completed, 5 µL of substrate solution was added to each well, and the resulting mixture was reacted at room temperature for 90 minutes. After the reaction was completed, 10 µL of detection reagent was added to each well to terminate the reaction, and the mixture was incubated at room temperature for 60 minutes. Fluorescence readings were detected using an Envision instrument with excitation at 320 nm and emission at 520 nm and 495 nm. IC50 value was calculated using XLFit excel add-in version 5.4.0.8 software. The calculation formula of the inhibition rate was shown in formula 5-1, wherein max is the Ratio of the DMSO control, min is the Ratio of the negative control without enzyme, and sample is the Ratio of the compound. Ratio = RFU520nm /RFU495nm [formula] Inhibition% = (max−sample)/(max−min) × 100% [formula] Table 5-1 Inhibitory activity of test compounds against HPK1 kinase

[2] = molecular target: T2, HPK1 protein (Homo sapiens, UniProt Q92918); test: Detection of HPK1 protein expression level in Jurkat cells (24 h); format: cell-based; details: 24 hours incubation
T2 construct: host or cells: Jurkat cells
T2 sequence (Q92918 whole entry): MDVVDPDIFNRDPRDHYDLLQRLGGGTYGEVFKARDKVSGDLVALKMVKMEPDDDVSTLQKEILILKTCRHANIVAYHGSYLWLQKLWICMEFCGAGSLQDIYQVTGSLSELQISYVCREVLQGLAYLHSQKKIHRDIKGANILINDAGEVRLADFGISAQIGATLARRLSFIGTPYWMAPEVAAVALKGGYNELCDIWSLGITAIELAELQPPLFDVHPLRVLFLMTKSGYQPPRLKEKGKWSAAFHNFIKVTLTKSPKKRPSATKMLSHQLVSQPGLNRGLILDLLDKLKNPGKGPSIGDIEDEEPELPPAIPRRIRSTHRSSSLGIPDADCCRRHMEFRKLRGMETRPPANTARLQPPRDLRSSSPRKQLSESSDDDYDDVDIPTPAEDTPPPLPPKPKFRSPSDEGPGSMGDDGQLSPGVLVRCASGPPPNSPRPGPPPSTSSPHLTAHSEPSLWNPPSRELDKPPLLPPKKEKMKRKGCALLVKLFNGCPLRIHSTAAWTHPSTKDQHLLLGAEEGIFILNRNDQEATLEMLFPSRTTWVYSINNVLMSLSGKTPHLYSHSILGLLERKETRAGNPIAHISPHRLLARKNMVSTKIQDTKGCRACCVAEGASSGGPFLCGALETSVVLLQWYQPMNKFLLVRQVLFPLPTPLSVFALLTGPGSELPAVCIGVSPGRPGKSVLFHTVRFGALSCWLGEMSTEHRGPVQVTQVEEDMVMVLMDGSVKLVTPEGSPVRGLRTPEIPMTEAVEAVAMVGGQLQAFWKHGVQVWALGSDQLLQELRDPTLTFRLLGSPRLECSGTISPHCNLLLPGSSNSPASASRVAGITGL
Experimental: Test example 4: Detection of HPK1 protein expression level in Jurkat cells (24 h)
Jurkat cells from ATCC were placed in a RPMI-1640 complete medium (supplemented with 10% FBS and 1% penicillin-streptomycin solution) and cultured at 37°C and 5% CO2. The cells in the logarithmic growth phase were collected, the cell density was adjusted to 5 × 10^5 cells/well with the culture medium, and the cells were added to a 6-well cell culture plate at a volume of 1 mL/well. The compound to be tested was prepared to 2-fold the final concentration, 1 mL of the compounds at different concentrations were added to administration wells, a medium containing 0.2% DMSO was added to control wells, and the plate was incubated at 37°C and 5% CO2 for 24 hours. The cells were collected into a 1.5 mL centrifuge tube, 30 µL of RIPA lysis buffer (containing 1X protease inhibitor cocktail) was added, and the cells were lysed on ice for 15 minutes and centrifuged at 12000 rpm/min at 4°C for 10 minutes. The supernatant was collected and the protein content was determined using the BCA method. The protein sample to be tested was diluted to 0.2 mg/mL, HPK1 was detected using a fully automated protein expression quantitative analyser (ProteinSimple), and the internal reference protein was β-actin (all antibodies were from CST). The software (Compass for SW) of the fully automated protein expression quantitative analyser was used to process the raw data and calculate the peak area after internal reference normalisation and the HPK1 degradation rate relative to the control group. The HPK1 degradation rate was calculated according to formula 4-1, where Aadministration well is the relative peak area of the administration group after internal reference normalisation, and Acontrol well is the relative peak area of the vehicle control group after internal reference normalisation. DC50 values were calculated using a four-parameter non-linear fitting model in Graphpad 8.3.0 software. HPK1_degradation % = 100−(Aadministration well/Acontrol well×100%) [formula] Table 4-1 Degradation activity of test compounds against HPK1 protein in Jurkat cells (24 h)

[3] = Pharmacokinetic test in mice; format: in vivo, ICR mice; details: mouse, plasma
Experimental: Test example 6: Pharmacokinetic test in mice
Experimental objective: In this experiment, a single dose of test substances was administered to ICR mice intravenously and intragastrically, the concentrations of the test compounds in plasma of mice were measured, and the pharmacokinetic characteristics and bioavailability of the test compounds in mice were evaluated.
Experimental animals: Male ICR mice, 20-35 g, purchased from Chengdu Dossy Experimental Animals Co., Ltd. (SCXK (CHUAN) 2020-030).
Experimental method: On the day of the experiment, the ICR mice were randomly grouped according to their body weights. The animals were fasted but with water available overnight before the administration, and fed 4 h after the administration.
Sampling: Blood was taken from the orbits of the mice at specified time points, and placed in an EDTAK2 centrifuge tube. Centrifugation was performed at 5000 rpm at 4°C for 10 min, and the plasma was collected.
Time points for plasma collection in G1 and G1-2 groups: 0, 5 min, 15 min, 30 min, 1 h, 2 h, 4 h, 7 h, and 24 h.
Time points for plasma collection in G2 and G2-2 groups: 0, 5 min, 15 min, 30 min, 1 h, 2 h, 4 h, 7 h, and 24 h.
Before analysis and detection, all the samples were stored at -60°C or lower. The samples were analysed quantitatively by LC-MS/MS. Table 6-1 PK data of test compound drug in mice

[4] = ATP working concentration: 1 mM, read-out: IC50
[5] = ATP working concentration: 1 mM

SMILES: O=C1CCC(c2ccc(N3CCN(CC4CCN(c5ccc(Nc6ccc(-c7cnc8cc(F)ccn78)c7c6C(=O)NC7)nc5)CC4)CC3)cc2F)C(=O)N1 (single isomer, unassigned) [Compound 1-2]
IC50 [1, 4]: < 0.05 µM

IC50 [1, 4]: < 0.05 µM
DC50 ([2]; read-out: DC50): < 0.02 µM
SMILES: O=C1CCN(c2cc3c(cc2F)N2CCN(CC4CC5(CCN(c6ccc(Nc7ccc(-c8cnc9cc(F)ccn89)c8c7C(=O)NC8)nc6)CC5)C4)C[C@H]2CC3)C(=O)N1 [Compound 16]

IC50 [1, 4]: < 0.05 µM
SMILES: CN(C)Cc1nc(Nc2ccc(-c3cnc4cc(F)ccn34)c3c2C(=O)NC3)ccc1C1CCN(CC2(F)CCN(c3ccc(N4CCC(=O)NC4=O)c(F)c3)CC2)CC1 [Compound 38]

SMILES: N#Cc1ccn2c(-c3ccc(Nc4ccc(N5CCC6(CC5)CC(N5CCN7c8cc(F)c(N9CCC(=O)NC9=O)cc8CC[C@@H]7C5)C6)cn4)c4c3CNC4=O)cnc2c1 [Compound 48]
IC50 [1, 5]: < 0.05 µM
clearance ([3]; IV, 1 mg/kg): 0.1 L/h/kg
half-life ([3]; IV, 1 mg/kg): 5.3 h
AUC ([3]; po, i. g., 10 mg/kg): 25.9 µg·h/mL
Cmax ([3]; po, i. g., 10 mg/kg): 2.29 µg/mL
half-life ([3]; po, i. g., 10 mg/kg): 4.9 h

SMILES: CN(C)Cc1nc(Nc2ccc(-c3cnc4cc(F)ccn34)c3c2C(=O)NC3)ccc1C1CCN(CC2CCN(c3ccc(N4CCC(=O)NC4=O)c(F)c3)CC2)CC1 [Trifluoroacetic acid salt of compound 9]
IC50 [1]: < 0.05 µM
DC50 [2]: < 0.02 µM

SMILES: CN(C)Cc1nc(Nc2ccc(-c3cnc4cc(F)ccn34)c3c2C(=O)NC3)ccc1N1CCC(CN2CCN3c4cc(F)c(N5CCC(=O)NC5=O)cc4CC[C@H]3C2)CC1 [Trifluoroacetic acid salt of compound 10]
IC50 [1, 5]: < 0.05 µM

SMILES: CN(C)Cc1nc(Nc2ccc(-c3cnc4cc(F)ccn34)c3c2C(=O)NC3)ccc1N1CCC(CN2CCN3c4cc(F)c(N5CCC(=O)NC5=O)cc4CC[C@@H]3C2)CC1 [Trifluoroacetic acid salt of compound 11]
IC50 [1, 5]: < 0.05 µM

SMILES: CN(C)Cc1nc(Nc2ccc(-c3cnc4cc(F)ccn34)c3c2C(=O)NC3)ccc1N1CCC(CN2CCN(c3ccc(N4CCC(=O)NC4=O)c(F)c3)CC2)CC1 [Trifluoroacetic acid salt of compound 12]
IC50 [1]: < 0.05 µM

SMILES: O=C1CCC(c2ccc(N3CCC(CN4CCC(c5ccc(Nc6ccc(-c7cnc8cc(F)ccn78)c7c6C(=O)NC7)nc5)CC4)CC3)cc2F)C(=O)N1 (stereo not shown) [Trifluoroacetic acid salt of compound 17]
IC50 [1]: < 0.05 µM

SMILES: O=C1CCN(c2ccc(N3CCC(CN4CCC(c5ccc(Nc6ccc(-c7cnc8cc(F)ccn78)c7c6C(=O)NC7)nc5)CC4)CC3)cc2F)C(=O)N1 [Trifluoroacetic acid salt of compound 18]
IC50 [1]: < 0.05 µM

SMILES: O=C1CCN(c2cc3c(cc2F)N2CCN(CC4CN(c5ccc(Nc6ccc(-c7cnc8cc(F)ccn78)c7c6C(=O)NC7)nc5)C4)C[C@H]2CC3)C(=O)N1 [Trifluoroacetic acid salt of compound 21]
IC50 [1]: < 0.05 µM

SMILES: O=C1CCN(c2cc3c(cc2F)N2CCN(CC4CN(c5ccc(Nc6ccc(-c7cnc8cc(F)ccn78)c7c6C(=O)NC7)nc5)C4)C[C@@H]2CC3)C(=O)N1 [Trifluoroacetic acid salt of compound 22]
IC50 [1]: < 0.05 µM

SMILES: O=C1CCN(c2cc3c(cc2F)N2CCN(CC4CCN(c5ccc(Nc6ccc(-c7cnc8cc(F)ccn78)c7c6C(=O)NC7)nc5CN5CC(F)(F)C5)CC4)C[C@H]2CC3)C(=O)N1 [Trifluoroacetic acid salt of compound 23]
IC50 [1, 5]: < 0.05 µM

SMILES: O=C1CCN(c2cc3c(cc2F)N2CCN(CC4CCN(c5ccc(Nc6ccc(-c7cnc8cc(F)ccn78)c7c6C(=O)NC7)nc5CN5CC(F)(F)C5)CC4)C[C@@H]2CC3)C(=O)N1 [Trifluoroacetic acid salt of compound 24]
IC50 [1, 5]: < 0.05 µM

SMILES: O=C1CCN(c2cc3c(cc2F)N2CCN(CC4CCN(c5ccc(Nc6ccc(-c7cnc8cc(F)ccn78)c7c6C(=O)NC7)nc5CN5CCC(F)(F)C5)CC4)CC2CC3)C(=O)N1 (stereo not shown) [Trifluoroacetic acid salt of compound 25]
IC50 [1, 5]: < 0.05 µM

SMILES: O=C1CCN(c2cc3c(cc2F)N2CCN(CC4CCN(c5ccc(Nc6ccc(-c7cnc8cc(F)ccn78)c7c6C(=O)NC7)nc5CN5CCC(F)(F)C5)CC4)C[C@H]2CC3)C(=O)N1 [Trifluoroacetic acid salt of compound 28]
IC50 [1, 5]: < 0.05 µM

SMILES: O=C1CCN(c2cc3c(cc2F)N2CCN(CC4CCN(c5ccc(Nc6ccc(-c7cnc8cc(F)ccn78)c7c6C(=O)NC7)nc5CN5CC[C@H](F)C5)CC4)C[C@H]2CC3)C(=O)N1 [Trifluoroacetic acid salt of compound 29]
IC50 [1, 5]: < 0.05 µM

SMILES: O=C1CCN(c2cc3c(cc2F)N2CCN(CC4CCN(c5ccc(Nc6ccc(-c7cnc8cc(F)ccn78)c7c6C(=O)NC7)nc5CN5CC[C@@H](F)C5)CC4)C[C@H]2CC3)C(=O)N1 [Trifluoroacetic acid salt of compound 30]
IC50 [1, 5]: < 0.05 µM

SMILES: O=C1CC[C@H](NC(=O)c2cc3c(cc2F)N2CCN(C4CC5(CCN(c6ccc(Nc7ccc(-c8cnc9cc(F)ccn89)c8c7C(=O)NC8)nc6)CC5)C4)C[C@@H]2CC3)C(=O)N1 [Trifluoroacetic acid salt of compound 33]
IC50 [1, 5]: < 0.05 µM

SMILES: N#Cc1ccn2c(-c3ccc(Nc4ccc(N5CCC6(CC5)CC(N5CCN7c8cc(F)c(N9CCC(=O)NC9=O)cc8CC[C@H]7C5)C6)cn4)c4c3CNC4=O)cnc2c1 [Trifluoroacetic acid salt of compound 43]
IC50 [1, 5]: < 0.05 µM

SMILES: O=C1CCN(c2cc3c(cc2F)N2CCN(C4CCC5(CC4)CCN(c4ccc(Nc6ccc(-c7cnc8cc(F)ccn78)c7c6C(=O)NC7)nc4)CC5)C[C@H]2CC3)C(=O)N1 [Trifluoroacetic acid salt of compound 44]
IC50 [1, 5]: < 0.05 µM

SMILES: N#Cc1ccn2c(-c3ccc(Nc4ccc(N5CCC(N6CCN7c8cc(F)c(N9CCC(=O)NC9=O)cc8CC[C@H]7C6)CC5)cn4)c4c3CNC4=O)cnc2c1 [Trifluoroacetic acid salt of compound 45]
IC50 [1]: < 0.05 µM

SMILES: N#Cc1ccn2c(-c3ccc(Nc4ccc(N5CCC6(CCC(N7CCN8c9cc(F)c(N%10CCC(=O)NC%10=O)cc9CC[C@@H]8C7)CC6)CC5)cn4)c4c3CNC4=O)cnc2c1 [Trifluoroacetic acid salt of compound 46]
IC50 [1, 5]: < 0.05 µM

SMILES: O=C1CCN(c2cc3c(cc2F)N2CCN(C4CCC5(CC4)CCN(c4ccc(Nc6ccc(-c7cnc8cc(F)ccn78)c7c6C(=O)NC7)nc4)CC5)C[C@@H]2CC3)C(=O)N1 [Trifluoroacetic acid salt of compound 47]
IC50 [1, 5]: < 0.05 µM
